Assay results published in ChEMBL document CHEMBL6177936, “Stachydrine, a pyrrole alkaloid with promising therapeutic potential against metabolic syndrome and associated organ dysfunction” (RSC Med Chem, 2024).

What was measured:
[1] = AUC (0 to infinity) in Wistar rat at 10 mg/kg, iv measured for 24 hrs by LC-MS/MS analysis; assay type: ADME, organism-based; conditions: in vivo
[2] = MRT (0 to infinity) in Wistar rat at 166.3 mg/kg, po; assay type: ADME, organism-based; conditions: in vivo
[3] = Half life in CSBS-PD induced Sprague-Dawley rat at 15.28 mg/kg, po incubated for 24 hrs by LC-MS/MS analysis; assay type: ADME, organism-based; conditions: in vivo
[4] = Half life in Sprague-Dawley rat at 15.28 mg/kg, po incubated for 24 hrs by LC-MS/MS analysis; assay type: ADME, organism-based; conditions: in vivo
[5] = Half life in Sprague-Dawley rat at 9.86 mg/kg, po by UPLC-MS/MS analysis; assay type: ADME, organism-based; conditions: in vivo
[6] = AUC(0 to infinity) in KYDS rat at 1 g/Kg, IG by LC-MS/MS analysis; assay type: ADME; conditions: in vivo, po, 1000 mg/kg
[7] = MRT (0 to infinity) in KYDS rat at 1 g/Kg, IG by LC-MS/MS analysis; assay type: ADME; conditions: in vivo, po, 1000 mg/kg
[8] = Cmax in CSBS-PD induced Sprague-Dawley rat at 15.28 mg/kg, po incubated for 24 hrs by LC-MS/MS analysis; assay type: ADME, organism-based; conditions: in vivo
[9] = Tmax in Sprague-Dawley rat at 9.86 mg/kg, po by UPLC-MS/MS analysis; assay type: ADME, organism-based; conditions: in vivo
[10] = MRT (0 to infinity) in Sprague-Dawley rat at 9.86 mg/kg, po by UPLC-MS/MS analysis; assay type: ADME, organism-based; conditions: in vivo
[11] = Tmax in Wistar rat at 166.3 mg/kg, po; assay type: ADME, organism-based; conditions: in vivo
[12] = Cmax in Wistar rat at 166.3 mg/kg, po; assay type: ADME, organism-based; conditions: in vivo
[13] = Tmax in CSBS-PD induced Sprague-Dawley rat at 15.28 mg/kg, po incubated for 24 hrs by LC-MS/MS analysis; assay type: ADME, organism-based; conditions: in vivo
[14] = AUC (0 to infinity) in Sprague-Dawley rat at 9.86 mg/kg, po by UPLC-MS/MS analysis; assay type: ADME, organism-based; conditions: in vivo
[15] = Half life in KYDS rat at 1 g/Kg, IG by LC-MS/MS analysis; assay type: ADME; conditions: in vivo, po, 1000 mg/kg
[16] = Half life in Wistar rat at 166.3 mg/kg, po; assay type: ADME, organism-based; conditions: in vivo
[17] = Cmax in KYDS rat at 1 g/Kg, IG by LC-MS/MS analysis; assay type: ADME; conditions: in vivo, po, 1000 mg/kg
[18] = Tmax in KYDS rat at 1 g/Kg, IG by LC-MS/MS analysis; assay type: ADME; conditions: in vivo, po, 1000 mg/kg
[19] = AUC(infinity) in CSBS-PD induced Sprague-Dawley rat at 15.28 mg/kg, po incubated for 24 hrs by LC-MS/MS analysis; assay type: ADME, organism-based; conditions: in vivo
[20] = Cmax in Wistar rat at 10 mg/kg, iv measured for 24 hrs by LC-MS/MS analysis; assay type: ADME, organism-based; conditions: in vivo
[21] = Cmax in Sprague-Dawley rat at 9.86 mg/kg, po by UPLC-MS/MS analysis; assay type: ADME, organism-based; conditions: in vivo
[22] = Apparent oral clearance in KYDS rat at 1 g/Kg, IG by LC-MS/MS analysis; assay type: ADME; conditions: in vivo, 1000 mg/kg
[23] = AUC (0 to infinity) in Wistar rat at 166.3 mg/kg, po; assay type: ADME, organism-based; conditions: in vivo
[24] = Clearance in Wistar rat at 10 mg/kg, iv measured for 24 hrs by LC-MS/MS analysis; assay type: ADME, organism-based; conditions: in vivo
[25] = MRT(infinity) in CSBS-PD induced Sprague-Dawley rat at 15.28 mg/kg, po incubated for 24 hrs by LC-MS/MS analysis; assay type: ADME, organism-based; conditions: in vivo

AUC [1]: 12026.7 h/ng/mL | MRT inf [2]: 1.67 h | half-life [3]: 5.51 h | half-life [4]: 3.89 h | half-life [5]: 3.79 h | AUC [6]: 1279.31 µg/L/h | MRT inf [7]: 9.21 h | Cmax [8]: 14000 ng/mL | Tmax [9]: 1.5 h | MRT inf [10]: 4.44 h | Tmax [11]: 0.75 h | Cmax [12]: 1610 ng/mL | Tmax [13]: 2.83 h | AUC(0-inf) [14]: 2800 ng·h/mL | half-life [15]: 6.59 h | half-life [16]: 1.64 h | Cmax [17]: 135 ng/mL | Tmax [18]: 1.08 h | AUC [19]: 99240 ng·h/mL | Cmax [20]: 6400 ng/mL | Cmax [21]: 673 ng/mL | CL/F [22]: 1 mL/min/kg | AUC(0-inf) [23]: 2900 ng·h/mL | clearance [24]: 15.5 mL/min/kg | MRT inf [25]: 9.97 h
SMILES: C[N+]1(C)CCC[C@H]1C(=O)[O-]
